Measurements from US11083743B2, “DNA hypomethylating agents for cancer therapy” (priority 2013, dated 2021).

Tests used:
TS/A cells [1] = assay: Anti-tumor activity on TS/A tumor grafts in T cell-deficient athymic nude mice; type: in vivo; conditions: FIG. 6A, first cycle only
Procedure: (§1) Six-week-old female BALB/c, athymic nude and SCID/Beige mice were obtained from Harlan laboratories (Udine, Italy). Animal care and use were in accordance with Institutional guidelines and the indications of Workman et al. (Workman P, et al. Br J Cancer. 2010 May 25; 102(11): 1555-1577).
(§2) Mice were sc injected in the flank region with TS/A cells (2×10^5) resuspended in 0.1 ml of physiologic saline. Animals were examined daily and after a latency period of 1 week, mice bearing clearly palpable and visible tumor grafts (diameter≥0.2 cm) were ip injected with 0.2 ml/injection of i) 15 mg/kg/day of 5-AZA-CdR, three times a day every three hours on days 0 and 7 and on days 42 and 49 for the 2nd cycle of treatment; ii) 100 μg/mouse of anti-CTLA-4 mAb, on days 2, 5 and 8 and on days 44, 47 and 50 for the 2nd cycle of treatment; iii) 100 μg/mouse of anti-PDL-1 mAb on days 2, 5 and 8; iv) combined administration of 5-AZA-CdR and anti-CTLA-4 mAb according to the above reported schedules or; v) combined administration of 5-AZA-CdR and anti-PDL-1 mAb according to the above reported schedules. […] Animals were weekly monitored for changes in the tumor size or sacrificed by CO2 overdose; for the latter, tumor tissues were surgically removed, and each specimen, divided under sterile conditions, were snap-frozen in liquid nitrogen and stored at −80° C. until used for RNA and DNA extraction.

[2] = tested on: murine CTA (P1A, Mage-a family); assay: RT-PCR analysis of murine CTA expression in excised tumor tissues; type: in vivo; conditions: FIG. 4, tumors excised one week after end of first cycle
Procedure: Mice were sc injected in the flank region with TS/A cells (2×10^5) resuspended in 0.1 ml of physiologic saline. […] Control mice were ip injected with 0.2 ml of saline solution. Animals were weekly monitored for changes in the tumor size or sacrificed by CO2 overdose; for the latter, tumor tissues were surgically removed, and each specimen, divided under sterile conditions, were snap-frozen in liquid nitrogen and stored at -80° C. until used for RNA and DNA extraction. RNA and DNA were extracted from tissues sections, removed from control and treated mice one week after the end of the first cycle treatment (day 8) and homogenized with the aid of Tissue Lyser II (QIAGEN) in Trizol reagent or lysis buffer, respectively. Total RNA was extracted following the manufacturer's instructions and stored at -80° C. Total genomic DNA was extracted by digestion with 100 μg/ml proteinase K in the presence of 0.5% SDS at 50° C. overnight, followed by phenol/chloroform extraction and ethanol precipitation. Genomic DNA was eluted in TE buffer and stored at -20° C. RT-PCR reactions were performed using oligonucleotide primer sequences and PCR amplification programs specific for […] and Mage-a family (Coral S, Covre A et al, Br J Cancer. 2012 Sep. 25; 107(7):1116-24). […]

TS/A cells [3] = assay: Anti-tumor activity on TS/A tumor grafts in SCID/Beige mice; type: in vivo; conditions: FIG. 6B, first cycle only
Procedure: as §1, §2

TS/A cells [4] = assay: Anti-tumor activity on TS/A tumor grafts in syngeneic BALB/c mice (caliper tumor volume); type: in vivo; conditions: FIG. 1
Procedure: Primary cultures of murine mammary carcinoma cells TS/A were grown in DMEM Medium supplemented with 10% heat-inactivated FCS (Lonza), 2 mM L-glutamine (Biochrom AG) and 50 μM β-mercaptoethanol. Six-week-old female BALB/c, athymic nude and SCID/Beige mice were obtained from Harlan laboratories (Udine, Italy). Animal care and use were in accordance with Institutional guidelines and the indications of Workman et al. (Workman P, et al. Br J Cancer. 2010 May 25; 102(11): 1555-1577). Mice were sc injected in the flank region with TS/A cells (2×10^5) resuspended in 0.1 ml of physiologic saline. […] Control mice were ip injected with 0.2 ml of saline solution. Animals were weekly monitored for changes in the tumor size or sacrificed by CO2 overdose; for the latter, tumor tissues were surgically removed, and each specimen, divided under sterile conditions, were snap-frozen in liquid nitrogen and stored at −80° C. until used for RNA and DNA extraction. In vivo tolerability was evaluated by measurements of body weight and mortality rate. The antiproliferative activity of the drug was evaluated by caliper measurements of tumor mass. Body weight and tumor size measurements were recorded periodically, all along the treatment. Tumor volumes (TV) were calculated as follows: TV=LD^2/2 (in which L is the longest diameter and D the shortest one).

P1A = assay: Real-time quantitative RT-PCR of P1A expression in excised tumor tissues; type: in vivo, murine; conditions: FIG. 5; normalized to β-actin
Procedure: Mice were sc injected in the flank region with TS/A cells (2×10^5) resuspended in 0.1 ml of physiologic saline. […] Control mice were ip injected with 0.2 ml of saline solution. Animals were weekly monitored for changes in the tumor size or sacrificed by CO2 overdose; for the latter, tumor tissues were surgically removed, and each specimen, divided under sterile conditions, were snap-frozen in liquid nitrogen and stored at -80° C. until used for RNA and DNA extraction. RNA and DNA were extracted from tissues sections, removed from control and treated mice one week after the end of the first cycle treatment (day 8) and homogenized with the aid of Tissue Lyser II (QIAGEN) in Trizol reagent or lysis buffer, respectively. Total RNA was extracted following the manufacturer's instructions and stored at -80° C. […] Real-time quantitative RT-PCR analyses were performed as previously described (Calabro L, et al., J Cell Physiol 2005; 202:474-7) Briefly, total RNA was digested with RNAse-free DNAse (Roche Diagnostics), to remove contaminating genomic DNA. […] Measurement of gene expression was performed utilizing the ABI prism 7000 Sequence Detection System (Applied Biosystems), as previously described (Calabro L, et al., J Cell Physiol 2005; 202:474-7). cDNA standards were obtained by RT-PCR amplification of the specific mRNAs and quantitated by NanoDrop® ND-1000 UV-Vis Spectrophotometer. […]

MHC class I antigens = assay: MHC class I antigen expression on tumours of treated mice; type: in vivo
tumour = assay: Histology and immunohistochemistry of surgically-excised tumors from treated mice; type: in vivo
P1A promoter = assay: qMSP analysis of P1A promoter methylation in excised tumor tissues; type: in vivo, murine; conditions: FIG. 3; tumors excised one week after end of first cycle (day 8)
Procedure: Mice were sc injected in the flank region with TS/A cells (2×10^5) resuspended in 0.1 ml of physiologic saline. […] Control mice were ip injected with 0.2 ml of saline solution. Animals were weekly monitored for changes in the tumor size or sacrificed by CO2 overdose; for the latter, tumor tissues were surgically removed, and each specimen, divided under sterile conditions, were snap-frozen in liquid nitrogen and stored at -80° C. until used for RNA and DNA extraction. RNA and DNA were extracted from tissues sections, removed from control and treated mice one week after the end of the first cycle treatment (day 8) and homogenized with the aid of Tissue Lyser II (QIAGEN) in Trizol reagent or lysis buffer, respectively. Total RNA was extracted following the manufacturer's instructions and stored at -80° C. Total genomic DNA was extracted by digestion with 100 μg/ml proteinase K in the presence of 0.5% SDS at 50° C. overnight, followed by phenol/chloroform extraction and ethanol precipitation. Genomic DNA was eluted in TE buffer and stored at -20° C. […] Primers for the analysis of the methylation status of […], designed using the free on-line software MethPrimer (Li L C and […] Bioinformatics 2002; 18:1427-31), were: […] (Methylated), forward [NT] ID No. 5), reverse [NT] ID No. 6); […] (Unmethylated), forward [NT] ID No. 7), reverse [NT] ID No. 8). […]

`Nc1ncn([C@H]2C[C@H](O)[C@@H](CO)O2)c(=O)n1` [5-AZA-CdR, 5-aza-2′-deoxycytidine] was tested, and the tumor growth (TS/A cells [1]) was “significantly (p<0.05 and p<0.01) reduced tumor growth”, the “expression of P1A and Mage-a members in tumor tissues” value [2] was “strong de novo expression” and the tumor growth (TS/A cells [3]) was “significantly (p<0.05 and p<0.01) reduced tumor growth”. For the same compound, the tumor growth inhibition (TS/A cells [4]; day 15, vs control mice) was 40.7%, the tumor growth inhibition (TS/A cells [4]; day 35, vs control mice) was 67.6% and the “levels of P1A-specific mRNA expression, 5-AZA-CdR alone compared with combination” value (P1A) was “similar”. The “constitutive expression of MHC class I antigens on tumours” value (MHC class I antigens) was “increases”, the “lymphocyte infiltration into the tumour” value (tumour) was “neither induces lymphocyte infiltration” and the tumour necrosis (tumour) was “does not induce tumour necrosis”. The “constitutive methylation levels of P1A promoter in cancer tissues vs control mice” value (P1A promoter) was “significant (p<0.05) reduction”.
